Experimental data reported in US7276527B2, “5-pyridyl-1,3-azole compounds, process for producing the same and use thereof” (Takeda Pharmaceutical Company Limited, priority 1999, dated 2007).

In the case of `CC(=O)Nc1nc(-c2cc(C)cc(C)c2)c(-c2ccnc(NCc3ccccc3)c2)s1` [Example Compound 10, N-[5-(2-benzylamino-4-pyridyl)-4-(3,5-dimethylphenyl)-1,3-thiazol-2-yl]acetamide], the melting point is reported as 217 to 219 °C.
In the case of `CNc1nc(-c2ccc(OC)cc2)c(-c2ccnc(NC(=O)c3ccccc3)c2)s1` [Example Compound 11, N-[4-[4-(4-methoxyphenyl)-2-methylamino-1,3-thiazol-5-yl]-2-pyridyl]benzamide], the melting point is reported as 237 to 241 °C.
With `Cc1cccc(-c2nc(N)sc2-c2ccnc(NC(=O)c3ccccc3)c2)c1` [Example Compound 12, N-[4-[2-amino-4-(3-methylphenyl)-1,3-thiazol-5-yl]-2-pyridyl]benzamide] the melting point was 216 to 217 °C.
In the case of `COc1ccc(-c2nc(C)sc2-c2ccnc(NC(=O)Cc3ccccc3)c2)cc1` [Example Compound 15-1, N-[4-[4-(4-methoxyphenyl)-2-methyl-1,3-thiazol-5-yl]-2-pyridyl]phenylacetamide], the melting point is reported as 118 to 120 °C.
Work on `CCCCc1nc(-c2cccc(C)c2)c(-c2ccnc(NC(=O)Cc3ccccc3)c2)s1` [Example Compound 15-4, N-[4-[2-butyl-4-(3-methylphenyl)-1,3-thiazol-5-yl]-2-pyridyl]phenylacetamide] yielded a melting point of 92 to 93 °C.
`Cc1cccc(-c2nc(-c3ccccc3Cl)sc2-c2ccnc(NC(=O)Cc3ccccc3)c2)c1` [Example Compound 15-5, N-(4-[2-(2-chlorophenyl)-4-(3-methylphenyl)-1,3-thiazol-5-yl]-2-pyridyl]phenylacetamide] showed a melting point of 141 to 142 °C.
`CSc1ccc(-c2nc(-c3cccc(C)c3)c(-c3ccnc(NC(=O)Cc4ccccc4)c3)s2)cc1` [Example Compound 15-6, N-[4-[4-(3-methylphenyl)-2-(4-methylthiophenyl)-1,3-thiazol-5-yl]-2-pyridyl]phenylacetamide] gave a melting point of 205 to 206 °C.
Work on `CCc1nc(-c2cccc(C)c2)c(-c2ccnc(NC(=O)CCc3ccc(OC)cc3)c2)s1` [Example Compound 16-3, N-[4-[2-ethyl-4-(3-methylphenyl)-1,3-thiazol-5-yl]-2-pyridyl]-3-(4-methoxyphenyl)propionamide] yielded a melting point of 137 to 138 °C.
`CCc1nc(-c2cccc(C)c2)c(-c2ccnc(NC(=O)CCc3ccc(F)cc3)c2)s1` [Example Compound 16-4, N-[4-[2-ethyl-4-(3-methylphenyl)-1,3-thiazol-5-yl]-2-pyridyl]-3-(4-fluorophenyl)propionamide] gave a melting point of 116 to 117 °C.
Work on `CCc1nc(-c2cccc(C)c2)c(-c2ccnc(NC(=O)CCCc3ccccc3)c2)s1` [Example Compound 16-5, N-[4-[2-ethyl-4-(3-methylphenyl)-1,3-thiazol-5-yl]-2-pyridyl]-4-phenylbutyramide] yielded a melting point of 92 to 93 °C.
For `CCc1nc(-c2cccc(C)c2)c(-c2ccnc(NC(=O)CCCCc3ccccc3)c2)s1` [Example Compound 16-6, N-[4-[2-ethyl-4-(3-methylphenyl)-1,3-thiazol-5-yl]-2-pyridyl]-5-phenylvaleramide], the melting point was 86 to 87 °C.
For `CCCc1nc(-c2cccc(C)c2)c(-c2ccnc(NC(=O)CCc3ccccc3)c2)s1` [Example Compound 16-8, N-[4-[4-(3-methylphenyl)-2-propyl-1,3-thiazol-5-yl]-2-pyridyl]-3-phenylpropionamide], the melting point was 103 to 104 °C.
`CCCCc1nc(-c2cccc(C)c2)c(-c2ccnc(NC(=O)CCc3ccccc3)c2)s1` [Example Compound 16-10, N-[4-[2-butyl-4-(3-methylphenyl)-1,3-thiazol-5-yl]-2-pyridyl]-3-phenylpropionamide] gave a melting point of 77 to 78 °C.
In the case of `Cc1cccc(-c2nc(-c3ccc(F)cc3)sc2-c2ccnc(NC(=O)c3ccccc3)c2)c1` [Example Compound 16-11, N-[4-[2-(4-fluorophenyl)-4-(3-methylphenyl)-1,3-thiazol-5-yl]-2-pyridyl]benzamide], the melting point is reported as 126 to 128 °C.
Work on `Cc1cccc(-c2nc(-c3ccc(F)cc3)sc2-c2ccnc(NC(=O)CCc3ccccc3)c2)c1` [Example Compound 16-12, N-[4-[2-(4-fluorophenyl)-4-(3-methylphenyl)-1,3-thiazol-5-yl]-2-pyridyl]-3-phenylpropionamide] yielded a melting point of 169 to 171 °C.
Work on `Cc1cccc(-c2nc(-c3ccccc3Cl)sc2-c2ccnc(NC(=O)c3ccccc3)c2)c1` [Example Compound 16-13, N-(4-[2-(2-chlorophenyl)-4-(3-methylphenyl)-1,3-thiazol-5-yl]-2-pyridyl]benzamide] yielded a melting point of 138 to 140 °C.
Work on `Cc1cccc(-c2nc(-c3ccccc3Cl)sc2-c2ccnc(NC(=O)CCc3ccccc3)c2)c1` [Example Compound 16-14, N-[4-[2-(2-chlorophenyl)-4-(3-methylphenyl)-1,3-thiazol-5-yl]-2-pyridyl]-3-phenylpropionamide] yielded a melting point of 156 to 158 °C.
`CSc1ccc(-c2nc(-c3cccc(C)c3)c(-c3ccnc(NC(=O)c4ccccc4)c3)s2)cc1` [Example Compound 16-15, N-[4-[4-(3-methylphenyl)-2-(4-methylthiophenyl)-1,3-thiazol-5-yl]-2-pyridyl]benzamide] gave a melting point of 180 to 182 °C.
Compound `CSc1ccc(-c2nc(-c3cccc(C)c3)c(-c3ccnc(NC(=O)CCc4ccccc4)c3)s2)cc1` [Example Compound 16-16, N-[4-[4-(3-methylphenyl)-2-(4-methylthiophenyl)-1,3-thiazol-5-yl]-2-pyridyl]-3-phenylpropionamide] has a melting point of 174 to 175 °C.
Work on `CSc1ccc(-c2nc(-c3cccc(C)c3)c(-c3ccnc(NC(=O)c4cccs4)c3)s2)cc1` [Example Compound 16-17, N-[4-[4-(3-methylphenyl)-2-(4-methylthiophenyl)-1,3-thiazol-5-yl]-2-pyridyl]-2-thiophenecarboxamide] yielded a melting point of 145 to 147 °C.
For `CSc1ccc(-c2nc(-c3cccc(C)c3)c(-c3ccnc(NC(=O)c4ccc5ccccc5c4)c3)s2)cc1` [Example Compound 16-18, N-[4-[4-(3-methylphenyl)-2-(4-methylthiophenyl)-1,3-thiazol-5-yl]-2-pyridyl]-2-naphthamide], the melting point was 184 to 186 °C.
`COc1ccc(-c2nc(C)sc2-c2ccnc(NCc3ccccc3)c2)cc1` [Example Compound 19-1, N-benzyl-N-[4-[4-(4-methoxyphenyl)-2-methyl-1,3-thiazol-5-yl]-2-pyridyl]amine] gave a melting point of 132 to 133 °C.
`Cc1cccc(-c2nc(-c3ccc(F)cc3)sc2-c2ccnc(NCc3ccccc3)c2)c1` [Example Compound 19-11, N-benzyl-N-[4-[2-(4-fluorophenyl)-4-(3-methylphenyl)-1,3-thiazol-5-yl]-2-pyridyl]amine] showed a melting point of 143 to 146 °C.
`Cc1cccc(-c2nc(-c3ccc(F)cc3)sc2-c2ccnc(NCCc3ccccc3)c2)c1` [Example Compound 19-12, N-[4-[2-(4-fluorophenyl)-4-(3-methylphenyl)-1,3-thiazol-5-yl]-2-pyridyl]-N-(2-phenylethyl)amine] showed a melting point of 97 to 98 °C.
`Cc1cccc(-c2nc(-c3ccc(F)cc3)sc2-c2ccnc(NCCCc3ccccc3)c2)c1` [Example Compound 19-13, N-[4-[2-(4-fluorophenyl)-4-(3-methylphenyl)-1,3-thiazol-5-yl]-2-pyridyl]-N-(3-phenylpropyl)amine] showed a melting point of 110 to 112 °C.
With `Cc1cccc(-c2nc(-c3ccccc3Cl)sc2-c2ccnc(NCc3ccccc3)c2)c1` [Example Compound 19-14, N-benzyl-N-[4-[2-(2-chlorophenyl)-4-(3-methylphenyl)-1,3-thiazol-5-yl]-2-pyridyl]amine] the melting point was 84 to 86 °C.
In the case of `Cc1cccc(-c2nc(-c3ccccc3Cl)sc2-c2ccnc(NCCc3ccccc3)c2)c1` [Example Compound 19-15, N-[4-[2-(2-chlorophenyl)-4-(3-methylphenyl)-1,3-thiazol-5-yl]-2-pyridyl]-N-(2-phenylethyl)amine], the melting point is reported as 113 to 114 °C.
Compound `Cc1cccc(-c2nc(-c3ccccc3Cl)sc2-c2ccnc(NCCCc3ccccc3)c2)c1` [Example Compound 19-16, N-[4-[2-(2-chlorophenyl)-4-(3-methylphenyl)-1,3-thiazol-5-yl]-2-pyridyl]-N-(3-phenylpropyl)amine] has a melting point of 101 to 102 °C.
Compound `CSc1ccc(-c2nc(-c3cccc(C)c3)c(-c3ccnc(NCc4ccccc4)c3)s2)cc1` [Example Compound 19-17, N-benzyl-N-[4-[4-(3-methylphenyl)-2-(4-methylthiophenyl)-1,3-thiazol-5-yl]-2-pyridyl]amine] has a melting point of 134 to 136 °C.
For `CSc1ccc(-c2nc(-c3cccc(C)c3)c(-c3ccnc(NCCc4ccccc4)c3)s2)cc1` [Example Compound 19-18, N-[4-[4-(3-methylphenyl)-2-(4-methylthiophenyl)-1,3-thiazol-5-yl]-2-pyridyl]-N-(2-phenylethyl)amine], the melting point was 137 to 139 °C.
`CSc1ccc(-c2nc(-c3cccc(C)c3)c(-c3ccnc(NCCCc4ccccc4)c3)s2)cc1` [Example Compound 19-19, N-[4-[4-(3-methylphenyl)-2-(4-methylthiophenyl)-1,3-thiazol-5-yl]-2-pyridyl]-N-(3-phenylpropyl)amine] gave a melting point of 106 to 107 °C.
In the case of `CSc1ccc(-c2nc(-c3cccc(C)c3)c(-c3ccnc(NCc4ccc5ccccc5c4)c3)s2)cc1` [Example Compound 19-20, N-[4-[4-(3-methylphenyl)-2-(4-methylthiophenyl)-1,3-thiazol-5-yl]-2-pyridyl]-N-(2-naphthylmethyl)amine], the melting point is reported as 144 to 145 °C.
`Cc1cccc(-c2nc(-c3ccc(S(C)(=O)=O)cc3)sc2-c2ccnc(NC(=O)CCc3ccccc3)c2)c1` [Example Compound 21-2, N-[4-[4-(3-methylphenyl)-2-(4-methylsulfonylphenyl)-1,3-thiazol-5-yl]-2-pyridyl]-3-phenylpropionamide] showed a melting point of 236 to 237 °C.
With `Cc1cccc(-c2nc(-c3ccc(S(C)(=O)=O)cc3)sc2-c2ccnc(NC(=O)c3cccs3)c2)c1` [Example Compound 21-3, N-[4-[4-(3-methylphenyl)-2-(4-methylsulfonylphenyl)-1,3-thiazol-5-yl]-2-pyridyl]-2-thiophenecarboxamide] the melting point was 199 to 201 °C.
